One test concerns the target T1, E. coli DNA gyrase (Escherichia coli, UniProt P0AES4+P0AES6).
T1 construct: gene gyrA; holoenzyme A2B2 (known biology)
Briefly: DNA gyrase supercoiling assay. Type of test: biochemical. The conditions noted are these: tested at 45 nM.

Test [1] concerns T2, B. subtilis DSM10.
T2 construct: DSM10
Briefly: microbe, parasite or virus in culture. On the set-up: broth microdilution MIC in Mueller-Hinton Broth II, CLSI M07-A9. The conditions noted are these: Bacillus subtilis. The protocol: (§1) 2 Procedures for Biological Assays. Microdilution Assay. Minimal inhibitory concentration (MIC) values were determined according to the ninth edition of the Approved Standard M07-A9. The test was carried out for six different bacterial strains (E.coli DSM1116 [Gram-negative], E. coli BW25113 [Gram-negative], B. subtilis DSM10 [Gram-postive], M. luteus DSM1790 [Gram-postive], M. phlei DSM750 [Gram-postive], S. typhimurium TA100 [Gram-negative]. 20 µL of cryo stock of each strain were inoculated in 20 mL LB medium (Lysogeny broth: 10 g/L peptone, 5 g/L yeast extract, 5 g/L NaCl) followed by incubation overnight at 37 °C, 200 rpm. The test inoculum was adjusted by the 0.5 McFarland Standard (OD625 from 0.08 to 0.1). Within 15 min of preparation, the adjusted inoculum suspension was diluted in MHBII (BBLTM Mueller-Hinton Broth II, Becton, Dickinson and Company, New Jersey, USA) so that each well contained approximately 5 × 10^5 CFU/mL in a final volume of 100 µL. 95 µL of the inoculum were applied per well and 5 µL of the (diluted) antibiotic substance were added. Previously, the dry antibiotic compounds (1 to 15 and antibiotic control Ciprofloxacin (CIP)) were dissolved in DMSO (100%) with a concentration of 2560 µg/mL, and the so obtained stock solutions were further diluted in DMSO (100%). 5 µL of each antibiotic dilution were applied to the microdilution tray to reach final concentrations of 8 µg/mL to 0.016 µg/mL. One row of each well plate served as a growth control without antibiotic substances and another row of the microdilution tray served as sterility control (only MHB II-media). The antimicrobial effect of the solvent (DMSO) was tested by adding 5 µL DMSO to several wells. […] After UV exposure, we observed a second resonance set mainly for signals arising from residues MCA and pABA‐1. The new signals for the methyl, vinyl and aromatic protons of MCA were clearly shifted up‐field. To provide evidence that the second resonance set arose from the Z isomer, we performed 2D nuclear Overhauser enhancement (NOE) measurements, which unambiguously confirmed the expected atomic distances in the two isomeric states (Figure S1 in the Supporting Information). While only a small portion of the initial E state (t=0 h) was converted after t=2.5 h, an almost complete conversion to the Z isomer was detected after t=16 h. […] After 32 h, however, the equilibrium had also been reached and approximately 65 % of the fluoro analogue adopted the Z‐isomeric form (Figure S2). It is important to note that significant accumulation of the (Z)‐isomer also occurred when albicidin samples were exposed to sunlight (ca. 50 and 80 % Z after 32 and 160 h daylight, respectively) underlining the vulnerability of 1 during routine handling. These findings became even more relevant when we determined minimal inhibitory concentrations (MICs) against a panel of bacteria (Table S1). […] The fact, that the albicidin producer X. albilineans inhabits the xylem of sugar cane, which is exposed to sunlight, could severely impact the stability of albicid

Test [2] deals with T3, E. coli BW25113.
T3 construct: BW25113
Nature of the test: microbe, parasite or virus in culture. Details: broth microdilution MIC in Mueller-Hinton Broth II, CLSI M07-A9. The conditions noted are these: Escherichia coli. As for the experimental part: as §1

Test [3] has as its system T4, E. coli DSM1116.
T4 construct: DSM1116
Briefly: microbe, parasite or virus in culture. On the set-up: broth microdilution MIC in Mueller-Hinton Broth II, CLSI M07-A9. As for the experimental part: as §1

For test [4], the system named is T5, M. luteus DSM1790.
T5 construct: DSM1790
Briefly: microbe, parasite or virus in culture. On the set-up: broth microdilution MIC in Mueller-Hinton Broth II, CLSI M07-A9. The note with it: Micrococcus luteus. As for the experimental part:
as §1

Test [5] deals with T6, S. typhimurium TA100.
T6 construct: TA100
Briefly: microbe, parasite or virus in culture. The note with it: Salmonella enterica. On the set-up: broth microdilution MIC in Mueller-Hinton Broth II, CLSI M07-A9. As for the experimental part: as §1

Test [6] concerns T2, B. subtilis DSM10. Nature of the test: microbe, parasite or virus in culture. On the set-up: broth microdilution MIC, CLSI M07-A9, MHB II. The conditions noted are these: Bacillus subtilis. The protocol:
(§2) 2 Procedures for Biological Assays. Microdilution Assay. Minimal inhibitory concentration (MIC) values were determined according to the ninth edition of the Approved Standard M07-A9. The test was carried out for six different bacterial strains (E.coli DSM1116 [Gram-negative], E. coli BW25113 [Gram-negative], B. subtilis DSM10 [Gram-postive], M. luteus DSM1790 [Gram-postive], M. phlei DSM750 [Gram-postive], S. typhimurium TA100 [Gram-negative]. 20 µL of cryo stock of each strain were inoculated in 20 mL LB medium (Lysogeny broth: 10 g/L peptone, 5 g/L yeast extract, 5 g/L NaCl) followed by incubation overnight at 37 °C, 200 rpm. The test inoculum was adjusted by the 0.5 McFarland Standard (OD625 from 0.08 to 0.1). Within 15 min of preparation, the adjusted inoculum suspension was diluted in MHBII (BBLTM Mueller-Hinton Broth II, Becton, Dickinson and Company, New Jersey, USA) so that each well contained approximately 5 × 10^5 CFU/mL in a final volume of 100 µL. 95 µL of the inoculum were applied per well and 5 µL of the (diluted) antibiotic substance were added. Previously, the dry antibiotic compounds (1 to 15 and antibiotic control Ciprofloxacin (CIP)) were dissolved in DMSO (100%) with a concentration of 2560 µg/mL, and the so obtained stock solutions were further diluted in DMSO (100%). 5 µL of each antibiotic dilution were applied to the microdilution tray to reach final concentrations of 8 µg/mL to 0.016 µg/mL. One row of each well plate served as a growth control without antibiotic substances and another row of the microdilution tray served as sterility control (only MHB II-media). The antimicrobial effect of the solvent (DMSO) was tested by adding 5 µL DMSO to several wells. Purity check and cell titer control were performed according to International Standard M07-

For test [7], the system named is T3, E. coli BW25113. Nature of the test: microbe, parasite or virus in culture. On the set-up: broth microdilution MIC, CLSI M07-A9, MHB II. The conditions noted are these: Escherichia coli. As for the experimental part: as §2
In test [8] the test system is T5, M. luteus DSM1790. Nature of the test: microbe, parasite or virus in culture. Details: broth microdilution MIC, CLSI M07-A9, MHB II. The note with it: Micrococcus luteus. As for the experimental part: as §2
Test [9] deals with T6, S. typhimurium TA100. Nature of the test: microbe, parasite or virus in culture. On the set-up: broth microdilution MIC, CLSI M07-A9, MHB II. The note with it: Salmonella enterica. The protocol: as §2
Test [10] concerns T4, E. coli DSM1116. Briefly: microbe, parasite or virus in culture. Details: broth microdilution MIC, CLSI M07-A9, MHB II. The conditions noted are these: Escherichia coli. As for the experimental part: as §2
[11] abbreviates: Escherichia coli, DSM1116, read-out: MIC.

Each structure is given as a SMILES string. In brackets after ≈: the same amount, converted by molar mass. Like-named read-outs stand apart in the source and are kept apart here.

T1 sequence (P0AES4 2-875, one chain of several): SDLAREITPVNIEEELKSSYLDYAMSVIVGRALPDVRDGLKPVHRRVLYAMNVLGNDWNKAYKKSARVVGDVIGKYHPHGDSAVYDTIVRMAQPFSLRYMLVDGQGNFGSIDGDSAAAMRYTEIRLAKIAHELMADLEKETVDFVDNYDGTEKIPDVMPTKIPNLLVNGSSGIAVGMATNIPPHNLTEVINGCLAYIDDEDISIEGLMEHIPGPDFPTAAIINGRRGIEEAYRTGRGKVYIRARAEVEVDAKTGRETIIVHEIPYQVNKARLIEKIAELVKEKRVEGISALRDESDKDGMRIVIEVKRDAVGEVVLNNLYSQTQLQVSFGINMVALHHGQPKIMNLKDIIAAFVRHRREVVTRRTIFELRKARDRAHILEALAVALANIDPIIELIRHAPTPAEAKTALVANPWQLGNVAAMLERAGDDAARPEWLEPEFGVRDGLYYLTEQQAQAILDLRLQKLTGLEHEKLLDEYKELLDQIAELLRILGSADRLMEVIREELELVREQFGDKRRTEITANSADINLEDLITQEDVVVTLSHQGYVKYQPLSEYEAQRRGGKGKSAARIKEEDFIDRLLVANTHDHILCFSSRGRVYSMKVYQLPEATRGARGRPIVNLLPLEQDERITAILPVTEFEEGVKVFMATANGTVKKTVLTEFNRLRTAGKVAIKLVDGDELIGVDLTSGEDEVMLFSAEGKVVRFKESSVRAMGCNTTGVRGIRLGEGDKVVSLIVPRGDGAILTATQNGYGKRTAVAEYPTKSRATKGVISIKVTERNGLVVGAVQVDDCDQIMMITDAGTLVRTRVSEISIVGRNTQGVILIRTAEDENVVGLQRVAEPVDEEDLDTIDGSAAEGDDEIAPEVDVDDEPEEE

In the case of `COc1c(NC(=O)c2ccc(NC(=O)c3ccc(NC(=O)[C@H](CC#N)NC(=O)c4ccc(NC(=O)/C(C)=C\c5ccc(O)cc5)cc4)cc3)c(OC)c2O)ccc(C(=O)O)c1O` [Z isomer of albicidin], the “inhibition at 45 nM” value against E. coli DNA gyrase is recorded as “the Z isomer was incapable of inhibiting DNA gyrase”.

In the case of `O=C(O)c1cn(C2CC2)c2cc(N3CCNCC3)c(F)cc2c1=O` [CIP, ciprofloxacin], the MIC is 0.25 µg/mL (≈ 0.754 µM) against B. subtilis DSM10 [1]; at most 0.016 µg/mL in the test on E. coli BW25113 [2]; 0.016 µg/mL (≈ 0.0483 µM) with E. coli DSM1116 [3] (setting [11]); 0.031 µg/mL (≈ 0.0936 µM) in the test with E. coli DSM1116 [3] (inhibitor, CIP); 1 µg/mL (≈ 3.02 µM) with M. luteus DSM1790 [4]; at most 0.016 µg/mL in the test on S. typhimurium TA100 [5]. For the same compound, the MIC in the test on B. subtilis DSM10 [6] is 0.25 µg/mL (≈ 0.754 µM); in the test with E. coli BW25113 [7], at most 0.016 µg/mL; with M. luteus DSM1790 [8], 1 µg/mL (≈ 3.02 µM); against S. typhimurium TA100 [9], at most 0.016 µg/mL.

As to `COc1c(NC(=O)c2ccc(NC(=O)c3ccc(NC(=O)[C@H](CC#N)NC(=O)c4ccc(NC(=O)/C(C)=C/c5ccc(O)cc5)cc4)cc3)c(OC)c2O)ccc(C(=O)O)c1O` [compound 1, albicidin], the MIC was determined as 0.25 µg/mL (≈ 0.297 µM) in the test on B. subtilis DSM10 [1]; 0.25 µg/mL (≈ 0.297 µM) against B. subtilis DSM10 [1] (dark sample, 100% E isomer); 0.063 µg/mL (≈ 0.0747 µM) against E. coli BW25113 [2]; 0.063 µg/mL (≈ 0.0747 µM) against E. coli BW25113 [2] (dark sample, 100% E isomer); 0.063 µg/mL (≈ 0.0747 µM) in the test on E. coli DSM1116 [3] (setting [11]); 0.063 µg/mL (≈ 0.0747 µM) in the test on E. coli DSM1116 [3] (Escherichia coli, dark sample, 100% E isomer). For the same compound, the MIC against M. luteus DSM1790 [4] is 1 µg/mL (≈ 1.19 µM); in the test with M. luteus DSM1790 [4] (dark sample, 100% E isomer), 1 µg/mL (≈ 1.19 µM); against S. typhimurium TA100 [5], at most 0.016 µg/mL; against S. typhimurium TA100 [5] (dark sample, 100% E isomer), 0.016 µg/mL (≈ 0.019 µM); in the test on B. subtilis DSM10 [6], 0.25 µg/mL (≈ 0.297 µM); against E. coli BW25113 [7] it was 0.063 µg/mL (≈ 0.0747 µM). For the same compound, the MIC in the test on E. coli DSM1116 [10] is 0.063 µg/mL (≈ 0.0747 µM); in the test on M. luteus DSM1790 [8], 1 µg/mL (≈ 1.19 µM); in the test on S. typhimurium TA100 [9] it was at most 0.016 µg/mL.

The values are drawn from PMC8362182, “Acetylenic Replacement of Albicidin's Methacrylamide Residue Circumvents Detrimental E/Z Photoisomerization and Preserves Antibacterial Activity” (Chemistry (Weinheim an Der Bergstrasse, Germany), 2021).
